Where two headings read alike, the source gives them in different places.
Tests used:
[1] = system: HeLa; test: In vitro cytotoxicity, MTT assay; format: cell-based, human; conditions: HeLa
Method: (§2) In vitro cytotoxicity assays. HeLa, NCI-H460, HCT116, A2780, A2780cis and
(§3) cells), respectively, were seeded in 96-well plates for 24 h. The cells were then treated with a serial concentration of gold(III) complexes and incubated at 37 °C under a 5% CO2 atmosphere for 72 h. For nanostructures of 1, 2 and NC1, they were dissolved in
(§4) cisplatin were dissolved in culture medium-DMSO solution mixture (99:1, v/v).

[2] = system: NCI-H460; test: In vitro cytotoxicity, MTT assay; format: cell-based, human; conditions: NCI-H460, MTT assay, 72 h incubation
Method: as §2, §3, §4

[3] = system: HCT116; test: In vitro cytotoxicity, MTT assay; format: cell-based, human; conditions: HCT116, MTT assay, 72 h incubation
Method: as §2, §3, §4

[4] = system: A2780; test: In vitro cytotoxicity, MTT assay; format: cell-based, human; conditions: A2780, MTT assay, 72 h incubation
Method: as §2, §3, §4

[5] = system: A2780cis; test: In vitro cytotoxicity, MTT assay; format: cell-based, human; conditions: for IC50: A2780cis, MTT assay, 72 h incubation; for Resistance found in A2780cis: IC50 of A2780cis cells / IC50 of A2780 cells
Method: as §2, §3, §4

[6] = system: A2780adr; test: In vitro cytotoxicity, MTT assay; format: cell-based, human; conditions: for IC50: A2780adr; for Resistance found in A2780adr: IC50 of A2780adr cells / IC50 of A2780 cells
Method: as §2, §3, §4

[7] = system: MIHA; test: In vitro cytotoxicity, MTT assay; format: cell-based
Method: as §2, §3, §4

[8] = system: NCM460; test: In vitro cytotoxicity, MTT assay; format: cell-based, human; conditions: 72 h incubation
Method: as §2, §3, §4

[9] = system: CCD-19Lu; test: In vitro cytotoxicity, MTT assay; format: cell-based, human; conditions: 72 h incubation
Method: as §2, §3, §4

[10] = system: CHEM-5; test: In vitro cytotoxicity, MTT assay; format: cell-based, human; conditions: CHEM-5, MTT assay, 72 h
Method: (§1) page 7: The gold content of the nanocomposites was determined by dissolving the nanocomposites in conc. HNO3 / conc. HCl solution mixture (9:1, v/v; 30 µL), followed by ICP-MS analysis. […] The nanocomposite (10 µL) was dissolved in acetonitrile (90 µL), and subjected to gentle shaking overnight. The solution mixture was then dried under vacuum, and re- dispersed in 0.1 vol% formic acid in water/acetonitrile (7/3, v/v; 1 mL) solution mixture. […] The mobile phase was 0.1 vol% formic acid in water/acetonitrile (7:3, v/v) solution mixture. […] The cells were then treated with a serial concentration of gold(III) complexes and incubated at 37 °C under a 5% CO2 atmosphere for 72 h. […] After incubation for 72 h, MTT in PBS solution (5 mg/mL, 10 μL) was added to each well. The plates were incubated at 37 °C under a 5% CO2 atmosphere for another 4 h, and the cells were lysed by the addition of SDS solution (10%, w/w) with 0.01 M HCl (100 μL). After incubation in dark at 37 °C overnight, the cell viability after treatment was determined by a microtitre plate reader monitoring at the absorbance at 590 nm, P.7 page 8: which reflected the amount of blue formazan formed. IC50 values were then determined by CompuSyn S6 from three independent measurements. Study on the release of hydrolyzed product from 1 and 2 in aqueous buffer solutions by ICP-MS. […] At a predetermined time, an aliquot of solution was removed and dissolved in HNO3/HCl solution mixture (9:1, v/v; volume of aliquot: volume of acid mixture = 1:3). The solution mixture was heated at 65 °C with shaking overnight, and the gold content was determined by ICP-MS from three independent aliquots. […] 37 °C for 24 h. […] Analysis of cell lysate of HCT116 cells treated with complexes 1 and 3 by UPLC- QTOF-MS. […] All the cells were harvested, washed with PBS solution for three times and dispersed in ice-cold water. The cell suspension was then added to ice-cold acetonitrile (1:3, v/v), vortexed for 5 min, and centrifuged at 10,000 rpm at 4 °C. The supernatant was collected, dried under vacuum and the solid was re-dissolved in acetonitrile (HPLC grade) for UPLC- QTOF-MS experiments. The mobile phase was a mixture of 0.1% formic acid in water (phase A) and 0.1% formic acid in acetonitrile (phase B). […] P.46

[11] = system: L02; test: In vitro cytotoxicity, MTT assay; format: cell-based, human; conditions: 72 h
Method: as §1

[12] = system: HCT116 cells; test: Time-dependent induction of apoptosis, Caspase-3/7 Green ReadyProbes fluorescence microscopy; format: cell-based, human; conditions: HCT116, NC1 ([1] = 3.5 μM and [DOX] = 0.5 μM) or DOX alone (0.5 μM), Caspase-3/7 Green Reagent
Method: B from 20.1 to 25 min and returned to initial conditions and equilibrated for 3 minutes.
The flow rate was 0.4 mL/min and the injection volume was 2 µL. The UPLC-QTOF-MS chromatograms of 1, 3, 4 and solvent control in acetonitrile were also recorded for the interpretation of UPLC-QTOF-MS chromatograms of the cell lysate.
Cellular uptake experiments. HCT116, A2780 and A2780adr (2×10 5 cells), and MIHA and NCM460 (3.5×10 5 cells) cells were grown on 6-well plates at 37 °C under an atmosphere of 5% CO2 for 48 h. The culture medium was then removed, washed with PBS solution, and incubated with culture medium containing nanostructures of 1 […]
Au1a (2 µM; with 1 vol% DMSO). At a predetermined time, the culture medium was removed and washed with PBS solution for three times. The cells were then harvested and dispersed in ice-cold water. An aliquot of the cell suspension was subjected to Bio-rad protein assay with a microtitre plate reader at the absorbance at 595 nm, using bovine serum albumin as the protein standard. […] The solution mixture was heated at 65 °C with shaking overnight, and the gold content was determined by ICP-MS. […]
then removed and washed with PBS solution. The cells were then incubated with culture medium containing nanostructures of 1 (2 µM) and CellEvent Caspase-3/7 Green ReadyProbes Reagent (30 µL), or Au1a (2 µM; with 1 vol% DMSO) and CellEvent Caspase-3/7 Green ReadyProbes Reagent (30 µL) at 37 °C under an atmosphere of 5% CO2. Fluorescence images at different time intervals were recorded by the fluorescence microscope without washing the cells. […]
once every 2–3 days. The tumor volume was calculated by the equation: Volume (mm3) = l×w2/2, where l and w were the length and width of the tumor. At the end of the treatment, the nude mice were sacrificed and the tumor weight was measured. […]
At a predetermined time, the culture medium was removed and washed with PBS solution for three times. […] An aliquot of the cell suspension was subjected to Bio-rad protein assay with a microtitre plate reader at the absorbance at 595 nm, using bovine serum albumin as the protein standard. […]

[13] = MTT assay, 72 h incubation, read-out: IC50
[14] = 72 h, read-out: Total dose at IC50

Compound	IC50 [1, 13]	IC50 [2]	IC50 [3]	IC50 [4]	IC50 [5]	Resistance found in A2780cis [5]	IC50 [6, 13]	Resistance found in A2780adr [6]	IC50 [7, 13]	IC50 [8]	IC50 [9]	IC50 [10]	IC50 [11]	IC50 [1, 14]	IC50 ([1]; read-out: DOX at IC50, 72 h)	IC50 [6, 14]	IC50 ([6]; read-out: DOX at IC50, 72 h)	IC50 [7, 14]	IC50 ([7]; read-out: DOX at IC50, 72 h)	incubation time for induction of apoptosis [12]
N.N.[Cl][Pt][Cl] [Cisplatin, cisplatin, reference compound]	19800 ± 1420 nM	65400 ± 5060 nM	15700 ± 2200 nM	2590 ± 300 nM	8360 ± 50 nM	3.23	12700 ± 1830 nM	5	17600 ± 1310 nM	12300 ± 870 nM	49100 ± 5430 nM	13000 ± 200 nM	5900 ± 20 nM							
COc1cccc2c1C(=O)c1c(O)c3c(c(O)c1C2=O)C[C@@](O)(C(=O)CO)C[C@@H]3O[C@H]1C[C@H](N)[C@H](O)[C@H](C)O1 [DOX, Doxorubicin, reference compound]	570 ± 60 nM	40 ± 10 nM	140 ± 20 nM	50 ± 10 nM	50 ± 10 nM	1.20	680 ± 50 nM	14.3	100 ± 10 nM					570 nM	570 nM	680 nM	680 nM	100 nM	100 nM	30 h
